Experimental data taken from patent US20260092071A1, “COMPOUNDS AND COMPOSITIONS AS SMARCA2/4 DEGRADERS AND USES THEREOF” (REGENTS OF THE UNIVERSITY OF MICHIGAN, priority 2022, published 2026).
Like-named read-outs stand apart in the source and are kept apart here.

What was measured:
[1] = target: SMARCA2 (Homo sapiens, UniProt P51531); test: HiBiT assay for protein degradation, Hela SMARCA2-HiBiT cells (A series); type: cell-based; set-up: Hela cells were genetically modified via CRISPR/Cas9 to fuse HiBiT to the carboxy terminus of SMARCA2; host or cells: HeLa (CRISPR/Cas9 HiBiT knock-in); details: for DC50: read-out: SMARC A2 Hela HiBit DC50; for Dmax: read-out: SMARC A2 Hela HiBit Dmax (%);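 as to SMARC A2 Hela HiBit Dmax (%): 24 h compound treatment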
Chain of SMARCA2 (P51531 whole entry, the tested form may be a part): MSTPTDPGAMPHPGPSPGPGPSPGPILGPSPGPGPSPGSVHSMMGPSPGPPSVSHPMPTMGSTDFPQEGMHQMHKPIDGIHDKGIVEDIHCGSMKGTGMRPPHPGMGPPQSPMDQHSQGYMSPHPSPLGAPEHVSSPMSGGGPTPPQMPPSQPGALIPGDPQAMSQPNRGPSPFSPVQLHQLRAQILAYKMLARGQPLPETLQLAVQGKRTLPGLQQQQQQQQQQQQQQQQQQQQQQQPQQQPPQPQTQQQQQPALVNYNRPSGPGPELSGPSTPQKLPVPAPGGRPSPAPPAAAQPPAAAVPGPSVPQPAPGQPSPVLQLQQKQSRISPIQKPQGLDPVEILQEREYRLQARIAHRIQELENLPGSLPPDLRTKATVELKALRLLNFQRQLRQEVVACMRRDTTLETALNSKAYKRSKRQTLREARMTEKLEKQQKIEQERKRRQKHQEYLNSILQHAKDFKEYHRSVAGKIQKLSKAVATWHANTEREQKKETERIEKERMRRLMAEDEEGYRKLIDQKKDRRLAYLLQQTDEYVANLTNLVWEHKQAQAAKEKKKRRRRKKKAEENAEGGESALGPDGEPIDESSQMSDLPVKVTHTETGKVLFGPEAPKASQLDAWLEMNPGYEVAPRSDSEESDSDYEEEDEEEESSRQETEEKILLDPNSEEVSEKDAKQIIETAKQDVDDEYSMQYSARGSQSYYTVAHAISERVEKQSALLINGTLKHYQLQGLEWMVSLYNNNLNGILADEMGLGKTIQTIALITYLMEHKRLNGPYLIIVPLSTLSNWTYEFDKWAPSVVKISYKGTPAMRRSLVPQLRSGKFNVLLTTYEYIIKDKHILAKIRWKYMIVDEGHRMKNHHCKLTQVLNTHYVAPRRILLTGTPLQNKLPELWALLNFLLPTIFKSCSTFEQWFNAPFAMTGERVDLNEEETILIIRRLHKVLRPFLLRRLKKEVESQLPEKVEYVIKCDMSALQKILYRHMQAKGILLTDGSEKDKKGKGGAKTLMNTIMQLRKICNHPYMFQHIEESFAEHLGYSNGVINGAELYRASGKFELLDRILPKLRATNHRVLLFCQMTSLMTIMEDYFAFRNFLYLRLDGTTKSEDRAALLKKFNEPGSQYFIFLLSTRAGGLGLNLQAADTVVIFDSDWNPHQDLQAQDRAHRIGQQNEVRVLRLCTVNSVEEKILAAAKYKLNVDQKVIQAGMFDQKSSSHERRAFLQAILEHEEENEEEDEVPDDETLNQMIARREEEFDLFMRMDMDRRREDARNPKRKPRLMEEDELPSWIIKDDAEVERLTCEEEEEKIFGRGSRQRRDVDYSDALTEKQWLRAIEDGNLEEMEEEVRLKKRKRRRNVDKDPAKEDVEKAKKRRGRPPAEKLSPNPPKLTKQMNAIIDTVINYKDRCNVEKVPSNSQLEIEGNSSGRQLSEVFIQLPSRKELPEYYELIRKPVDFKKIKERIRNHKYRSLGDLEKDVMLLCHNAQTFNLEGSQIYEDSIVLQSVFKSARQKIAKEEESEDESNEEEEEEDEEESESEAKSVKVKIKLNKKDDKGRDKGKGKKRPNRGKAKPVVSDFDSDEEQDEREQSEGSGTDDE
Outline: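 HeLa cells engineered by CRISPR/Cas9 to carry a HiBiT tag fused to the C-terminus of SMARCA2 (Promega CS302365) were grown in DMEM supplemented with FBS and penicillin-streptomycin. After treatment, remaining SMARCA2 protein was quantified with the Nano-Glo® HiBiT Lytic Detection Assay (Promega N3050), and curves were fitted in GraphPad Prism.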

[2] = target: SMARCA4 (Homo sapiens, UniProt P51532); test: HiBiT assay for protein degradation, Hela SMARCA4-HiBiT cells (A series); type: cell-based; set-up: fuse HiBiT to the carboxy terminus of SMARCA2 (Promega CS302365) or SMARCA4 (Promega CS3023225); host or cells: HeLa (CRISPR/Cas9 HiBiT knock-in); details: for DC50: read-out: SMARC A4 Hela HiBit DC50
Chain of SMARCA4 (P51532 whole entry, the tested form may be a part): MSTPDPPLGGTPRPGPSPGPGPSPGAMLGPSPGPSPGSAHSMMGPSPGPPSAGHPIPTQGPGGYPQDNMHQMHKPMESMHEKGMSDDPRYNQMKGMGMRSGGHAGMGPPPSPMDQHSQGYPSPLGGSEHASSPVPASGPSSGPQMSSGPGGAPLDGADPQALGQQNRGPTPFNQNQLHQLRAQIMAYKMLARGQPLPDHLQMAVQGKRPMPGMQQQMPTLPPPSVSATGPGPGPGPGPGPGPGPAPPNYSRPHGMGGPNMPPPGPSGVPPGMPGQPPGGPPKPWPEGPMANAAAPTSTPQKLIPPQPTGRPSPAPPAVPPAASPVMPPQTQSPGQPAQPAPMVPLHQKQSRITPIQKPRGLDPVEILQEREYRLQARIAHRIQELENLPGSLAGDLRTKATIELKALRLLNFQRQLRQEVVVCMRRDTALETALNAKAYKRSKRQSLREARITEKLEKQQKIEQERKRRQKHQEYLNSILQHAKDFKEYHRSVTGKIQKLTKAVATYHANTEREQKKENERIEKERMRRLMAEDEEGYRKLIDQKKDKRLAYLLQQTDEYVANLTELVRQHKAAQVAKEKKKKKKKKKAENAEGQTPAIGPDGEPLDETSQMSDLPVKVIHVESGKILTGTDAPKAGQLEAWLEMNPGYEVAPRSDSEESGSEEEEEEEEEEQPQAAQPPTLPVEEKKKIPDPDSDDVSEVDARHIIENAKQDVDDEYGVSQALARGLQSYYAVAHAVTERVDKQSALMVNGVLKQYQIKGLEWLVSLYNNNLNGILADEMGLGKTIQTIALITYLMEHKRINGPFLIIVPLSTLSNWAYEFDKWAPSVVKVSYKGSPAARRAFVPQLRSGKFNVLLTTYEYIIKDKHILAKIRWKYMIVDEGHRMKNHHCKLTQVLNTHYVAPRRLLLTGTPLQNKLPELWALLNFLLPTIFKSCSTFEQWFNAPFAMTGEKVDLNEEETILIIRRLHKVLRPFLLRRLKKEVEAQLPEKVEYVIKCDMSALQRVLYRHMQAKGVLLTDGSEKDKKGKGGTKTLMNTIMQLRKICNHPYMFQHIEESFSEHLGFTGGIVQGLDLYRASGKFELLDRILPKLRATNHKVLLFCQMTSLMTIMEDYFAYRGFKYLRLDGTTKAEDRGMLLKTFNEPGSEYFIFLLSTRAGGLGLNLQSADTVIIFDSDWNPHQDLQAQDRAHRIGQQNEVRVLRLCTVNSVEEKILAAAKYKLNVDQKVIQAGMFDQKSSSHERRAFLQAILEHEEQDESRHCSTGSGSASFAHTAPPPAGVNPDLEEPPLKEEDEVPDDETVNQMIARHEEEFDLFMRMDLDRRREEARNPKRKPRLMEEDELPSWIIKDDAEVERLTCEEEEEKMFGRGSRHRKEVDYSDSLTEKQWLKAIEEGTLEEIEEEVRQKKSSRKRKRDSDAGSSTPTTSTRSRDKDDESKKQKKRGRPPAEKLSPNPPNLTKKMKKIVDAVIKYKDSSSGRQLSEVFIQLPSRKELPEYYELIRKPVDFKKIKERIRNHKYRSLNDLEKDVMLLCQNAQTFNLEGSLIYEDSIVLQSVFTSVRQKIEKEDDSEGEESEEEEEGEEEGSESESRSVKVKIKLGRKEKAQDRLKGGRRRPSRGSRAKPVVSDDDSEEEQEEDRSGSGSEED
Outline: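 HeLa cells engineered by CRISPR/Cas9 to carry a HiBiT tag fused to the C-terminus of SMARCA4 (Promega CS3023225) were grown in DMEM supplemented with FBS and penicillin-streptomycin. After compound exposure, remaining SMARCA4 protein was quantified using the Nano-Glo® HiBiT Lytic Detection Assay (Promega N3050), and curves were fitted in GraphPad Prism.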

[3] = Hela SMARCA2-HiBiT cells, 24 hours treatment
[4] = Hela SMARCA4-HiBiT cells, 24 hours treatment
[5] = Hela SMARCA4-HiBiT cells, 24 hours treatment, read-out: SMARC A4 Hela HiBit Dmax
[6] = HeLa, read-out: SMARC A4 Hela HiBit Dmax(%)

| Structure (SMILES) | DC50 [1, 3] | Dmax [1, 3] | DC50 [2, 4] | Dmax [2, 5] | SMARC A2 Hela HiBit Dmax (%) [1, 3] | DC50 [1] | SMARC A4 Hela HiBit Dmax(%) [2, 4] | DC50 [2] | Dmax ([1]; HeLa) | Dmax [2, 6] | Dmax ([2]; Hela SMARCA4-HiBiT cells, 24 hours treatment, read-out: SMARC A4 Hela HiBit Dmax(%)) |
| --- | --- | --- | --- | --- | --- | --- | --- | --- | --- | --- | --- |
| CC(C)(C)[C@@H](C(=O)N1C[C@H](O)C[C@H]1C(=O)N[C@@H](CN1CCOCC1)c1ccc(-c2ccccc2F)cc1)n1cc([C@H]2CC[C@H](CN3CCC(c4ccc5c(c4)-n4c(nc(=O)c6c(Cl)cccc64)C54CCCCC4)CC3)CC2)nn1 [Compound A164, (2S,4R)-1-((S)-2-(4-((1r,4S)-4-((4-(4′-chloro-5′-oxo-5′H-spiro[cyclohexane-1,7′-indolo[1,2-a]quinazolin]-10′-yl)piperidin-1-yl)methyl)cyclohexyl)-1H-1,2,3-triazol-1-yl)-3,3-dimethylbutanoyl)-N—((R)-1-(2′-fluoro-[1,1′-biphenyl]-4-yl)-2-morpholinoethyl)-4-hydroxypyrrolidine-2-carboxamide] | < 10 nM | > 90% | 100 to 1000 nM | 50 to 69% | – | – | – | – | – | – | – |
| Cc1ncsc1-c1ccc([C@H](C)NC(=O)[C@@H]2C[C@@H](O)CN2C(=O)[C@@H](n2cc(CCCCCCN3CCC(c4ccc5c(c4)-n4c(nc(=O)c6c(Br)cccc64)C54CCCCC4)CC3)nn2)C(C)(C)C)cc1 [Compound A47, (2S,4R)-1-((S)-2-(4-(6-(4-(4′-bromo-5′-oxo-5′H-spiro[cyclohexane-1,7′-indolo[1,2-a]quinazolin]-10′-yl)piperidin-1-yl)hexyl)-1H-1,2,3-triazol-1-yl)-3,3-dimethylbutanoyl)-4-hydroxy-N—((S)-1-(4-(4-methylthiazol-5-yl)phenyl)ethyl)pyrrolidine-2-carboxamide] | – | – | – | – | A (A (>90% degradation)) | < 100 nM | A (A (>90% degradation)) | < 100 nM | – | – | – |
| Cc1ncsc1-c1ccc([C@H](C)NC(=O)[C@@H]2C[C@@H](O)CN2C(=O)[C@@H](NC(=O)CN2CCC(c3ccc4c(c3)C3(CCCCC3)c3nc(=O)c5c(Cl)cccc5n3-4)CC2)C(C)(C)C)cc1 [Compound A5, (2S,4R)-1-((S)-2-(2-(4-(4′-chloro-5′-oxo-5′H-spiro[cyclohexane-1,7′-indolo[1,2-a]quinazolin]-9′-yl)piperidin-1-yl)acetamido)-3,3-dimethylbutanoyl)-4-hydroxy-N—((S)-1-(4-(4-methylthiazol-5-yl)phenyl)ethyl) pyrrolidine-2-carboxamide] | < 100 nM | – | < 100 nM | – | – | – | – | – | > 90% | > 90% | – |
| Cc1ncsc1-c1ccc([C@H](CN2CCOCC2)NC(=O)[C@@H]2C[C@@H](O)CN2C(=O)[C@H](C(C)C)n2cc([C@H]3CC[C@H](CN4CCC(c5ccc6c(c5)-n5c(nc(=O)c7c(Cl)cccc75)C6(C)C)CC4)CC3)nn2)cc1 [Compound A104, (2S,4R)-1-((S)-2-(4-((1r,4S)-4-((4-(4-chloro-7,7-dimethyl-5-oxo-5,7-dihydroindolo[1,2-a]quinazolin-10-yl)piperidin-1-yl)methyl)cyclohexyl)-1H-1,2,3-triazol-1-yl)-3-methylbutanoyl)-4-hydroxy-N-((R)-1-(4-(4-methylthiazol-5-yl)phenyl)-2-morpholinoethyl)pyrrolidine-2-carboxamide] | < 10 nM | > 90% | > 1000 nM | 50 to 69% | – | – | – | – | – | – | – |
| Cc1ncsc1-c1ccc([C@H](CN2CCOCC2)NC(=O)[C@@H]2C[C@@H](O)CN2C(=O)[C@H](C2CCCCC2)n2cc([C@H]3CC[C@H](CN4CCC[C@H](c5ccc6c(c5)-n5c(nc(=O)c7c(Cl)cccc75)C65CCCCC5)C4)CC3)nn2)cc1 [Compound A131, (2S,4R)-1-((2S)-2-(4-((1r,4S)-4-((3-(4′-chloro-5′-oxo-5′H-spiro[cyclohexane-1,7′-indolo[1,2-a]quinazolin]-10′-yl)piperidin-1-yl)methyl)cyclohexyl)-1H-1,2,3-triazol-1-yl)-2-cyclohexylacetyl)-4-hydroxy-N—((R)-1-(4-(4-methylthiazol-5-yl)phenyl)-2-morpholinoethyl)pyrrolidine-2-carboxamide] | 10 to 100 nM | 70 to 90% | > 1000 nM | < 50% | – | – | – | – | – | – | – |
| Cc1ncsc1-c1ccc([C@H](CN2CCOCC2)NC(=O)[C@@H]2C[C@@H](O)CN2C(=O)[C@H](C2CCOCC2)n2cc([C@H]3CC[C@H](CN4CCC(c5ccc6c(c5)-n5c(nc(=O)c7c(Cl)cccc75)C6(C)C)CC4)CC3)nn2)cc1 [Compound A102, (2S,4R)-1-((S)-2-(4-((1r,4S)-4-((4-(4-chloro-7,7-dimethyl-5-oxo-5,7-dihydroindolo[1,2-a]quinazolin-10-yl)piperidin-1-yl)methyl)cyclohexyl)-1H-1,2,3-triazol-1-yl)-2-(tetrahydro-2H-pyran-4-yl)acetyl)-4-hydroxy-N-((R)-1-(4-(4-methylthiazol-5-yl)phenyl)-2-morpholinoethyl)pyrrolidine-2-carboxamide] | < 10 nM | > 90% | > 1000 nM | 50 to 69% | – | – | – | – | – | – | – |
| Cc1ncsc1-c1ccc([C@H](CO)NC(=O)[C@@H]2C[C@@H](O)CN2C(=O)[C@H](C2CCCCC2)n2cc([C@H]3CC[C@H](CN4CCC(c5ccc6c(c5)-n5c(nc(=O)c7c(Cl)cccc75)C65CCCCC5)CC4)CC3)nn2)cc1 [Compound A126, (2S,4R)-1-((S)-2-(4-((1r,4S)-4-((4-(4′-chloro-5′-oxo-5′H-spiro[cyclohexane-1,7′-indolo[1,2-a]quinazolin]-10′-yl)piperidin-1-yl)methyl)cyclohexyl)-1H-1,2,3-triazol-1-yl)-2-cyclohexylacetyl)-4-hydroxy-N—((R)-2-hydroxy-1-(4-(4-methylthiazol-5-yl)phenyl)ethyl)pyrrolidine-2-carboxamide] | < 10 nM | > 90% | 10 to 100 nM | 50 to 69% | – | – | – | – | – | – | – |
| Cc1ncsc1-c1ccc([C@H](C)NC(=O)[C@@H]2C[C@@H](O)CN2C(=O)[C@@H](NC(=O)C23CCC(CN4CCC(c5ccc6c(c5)-n5c(nc(=O)c7c(Br)cccc75)C65CCCCC5)CC4)(CC2)C3)C(C)(C)C)cc1 [Compound A23, (2S,4R)-1-((S)-2-(4-((4-(4′-bromo-5′-oxo-5′H-spiro[cyclohexane-1,7′-indolo[1,2-a]quinazolin]-10′-yl)piperidin-1-yl)methyl)bicyclo[2.2.1]heptane-1-carboxamido)-3,3-dimethylbutanoyl)-4-hydroxy-N—((S)-1-(4-(4-methylthiazol-5-yl)phenyl)ethyl)pyrrolidine-2-carboxamide] | – | – | – | – | – | < 100 nM | – | 100 to 500 nM | > 90% | – | 70 to 90% |
| Cc1ncsc1-c1ccc([C@H](CN2CC(C(=O)O)C2)NC(=O)[C@@H]2C[C@@H](O)CN2C(=O)[C@@H](n2cc([C@H]3CC[C@H](CN4CCC(c5ccc6c(c5)-n5c(nc(=O)c7c(Cl)cccc75)C65CCCCC5)CC4)CC3)nn2)C(C)(C)C)cc1 [Compound A157, 1-((R)-2-((2S,4R)-1-((S)-2-(4-((1r,4S)-4-((4-(4′-chloro-5′-oxo-5′H-spiro[cyclohexane-1,7′-indolo[1,2-a]quinazolin]-10′-yl)piperidin-1-yl)methyl)cyclohexyl)-1H-1,2,3-triazol-1-yl)-3,3-dimethylbutanoyl)-4-hydroxypyrrolidine-2-carboxamido)-2-(4-(4-methylthiazol-5-yl)phenyl)ethyl) azetidine-3-carboxylic acid] | 100 to 1000 nM | 70 to 90% | > 1000 nM | < 50% | – | – | – | – | – | – | – |
| Cc1ncsc1-c1ccc([C@H](C)NC(=O)[C@@H]2C[C@@H](O)CN2C(=O)[C@@H](NC(=O)CCN2CCC(c3ccc4c(c3)C3(CCCCC3)c3nc(=O)c5c(Cl)cccc5n3-4)CC2)C(C)(C)C)cc1 [Compound A6, (2S,4R)-1-((S)-2-(3-(4-(4′-chloro-5′-oxo-5′H-spiro[cyclohexane-1,7′-indolo[1,2-a]quinazolin]-9′-yl)piperidin-1-yl)propanamido)-3,3-dimethylbutanoyl)-4-hydroxy-N—((S)-1-(4-(4-methylthiazol-5-yl)phenyl)ethyl) pyrrolidine-2-carboxamide] | 100 to 500 nM | – | 501 to 1000 nM | – | – | – | – | – | 70 to 90% | 50 to 69% | – |
